# Patent US10202389B2, “Pyrazolopyrimidinyl inhibitors of ubiquitin-activating enzyme” (Millennium Pharmaceuticals, Inc., priority 2012, dated 2019)
# Target: recombinant human UAE (Homo sapiens (Human), UniProt P22314)
# Experiment: Ubiquitin Activating Enzyme (UAE) HTRF Assay
# Details: read-out: % inhibition @0.111 μM
# Procedure: After incubation for 120 minutes, quantification of the FRET is performed on the Pherostar (BMG).
# For compounds whose values are marked with an asterisk (*), mouse UAE was used. For all other compounds, human UAE was used.
# recombinant human UAE, sequence (P22314 whole entry): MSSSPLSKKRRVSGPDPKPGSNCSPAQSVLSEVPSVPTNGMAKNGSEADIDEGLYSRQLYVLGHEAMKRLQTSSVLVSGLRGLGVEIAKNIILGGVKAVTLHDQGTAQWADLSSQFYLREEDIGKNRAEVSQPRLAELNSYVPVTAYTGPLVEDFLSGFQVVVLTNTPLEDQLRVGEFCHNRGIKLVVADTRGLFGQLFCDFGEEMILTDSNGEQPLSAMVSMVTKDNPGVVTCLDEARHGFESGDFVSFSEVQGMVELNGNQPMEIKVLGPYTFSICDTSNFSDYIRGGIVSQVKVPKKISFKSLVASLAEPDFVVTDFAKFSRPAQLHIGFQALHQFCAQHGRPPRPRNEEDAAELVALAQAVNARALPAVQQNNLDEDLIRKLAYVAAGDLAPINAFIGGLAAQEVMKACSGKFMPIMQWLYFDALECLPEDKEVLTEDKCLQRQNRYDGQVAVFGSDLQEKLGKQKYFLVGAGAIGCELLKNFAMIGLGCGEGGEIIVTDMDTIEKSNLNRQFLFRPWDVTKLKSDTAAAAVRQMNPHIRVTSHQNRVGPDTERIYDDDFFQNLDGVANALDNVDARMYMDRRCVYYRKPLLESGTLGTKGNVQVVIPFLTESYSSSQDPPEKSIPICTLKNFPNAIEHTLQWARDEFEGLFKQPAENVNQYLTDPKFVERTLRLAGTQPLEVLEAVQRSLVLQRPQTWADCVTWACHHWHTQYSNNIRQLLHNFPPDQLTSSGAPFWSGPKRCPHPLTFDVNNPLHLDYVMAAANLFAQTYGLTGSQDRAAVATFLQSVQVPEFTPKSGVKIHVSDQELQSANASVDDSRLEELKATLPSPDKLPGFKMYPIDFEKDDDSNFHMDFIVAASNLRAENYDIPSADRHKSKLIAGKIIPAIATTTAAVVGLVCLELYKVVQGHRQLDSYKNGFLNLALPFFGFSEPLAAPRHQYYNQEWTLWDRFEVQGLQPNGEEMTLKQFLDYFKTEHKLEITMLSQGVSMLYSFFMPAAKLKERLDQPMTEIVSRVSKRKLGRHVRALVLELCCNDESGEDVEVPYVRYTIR
row,Structure (SMILES),inhibition at 0.111 µM
1,"Cc1ccc(Cl)cc1-c1cc2nccc(N[C@@H]3C[C@H](COS(N)(=O)=O)[C@@H](O)[C@H]3O)n2n1 (relative stereo) [Compound I-021, (rac)-((1R,2R,3S,4R)-4-(2-(5-chloro-2-methylphenyl)pyrazolo[1,5-a]pyrimidin-7-ylamino)-2,3-dihydroxycyclopentyl)methyl rel-sulfamate]",97%
2,"NS(=O)(=O)OC[C@H]1C[C@@H](Nc2ccnc3cc(-c4ccnc(C(F)(F)F)c4)nn23)[C@H](O)[C@@H]1O (relative stereo) [Compound I-059, (rac)-((1R,2R,3S,4R)-2,3-dihydroxy-4-(2-(2-(trifluoromethyl)pyridin-4-yl)pyrazolo[1,5-a]pyrimidin-7-ylamino)cyclopentyl)methyl rel-sulfamate]",94%
3,"NS(=O)(=O)OC[C@H]1C[C@@H](Nc2ccnc3cc(-c4cccc5c4sc4ccccc45)nn23)[C@H](O)[C@@H]1O (relative stereo) [Compound I-056, (rac)-((1R,2R,3S,4R)-4-((2-(Dibenzo[b,d]thiophen-4-yl)pyrazolo[1,5-a]pyrimidin-7-yl)amino)-2,3-dihydroxycyclopentyl)methyl rel-sulfamate]",100%
4,"COc1ccc(SC(F)(F)F)cc1-c1cc2nccc(N[C@@H]3C[C@H](COS(N)(=O)=O)[C@@H](O)[C@H]3O)n2n1 [Compound I-120, (s.e.)-((1R,2R,3S,4R)-2,3-dihydroxy-4-(2-(2-methoxy-5-(trifluoromethylthio)-phenyl)pyrazolo[1,5-a]pyrimidin-7-ylamino)cyclopentyl)methyl sulfamate]",100%
5,"NS(=O)(=O)OC[C@H]1C[C@@H](Nc2ccnc3cc(-c4c(OC(F)F)ccc5ccccc45)nn23)[C@H](O)[C@@H]1O [Compound I-110, (s.e.)-((1R,2R,3S,4R)-4-(2-(2-(difluoromethoxy)naphthalen-1-yl)pyrazolo[1,5-a]pyrimidin-7-ylamino)-2,3-dihydroxycyclopentyl)methyl sulfamate]",100%
6,"NS(=O)(=O)OC[C@H]1C[C@@H](Nc2c(Cl)cnc3c(Cl)c(-c4cccc(SC(F)(F)F)c4)nn23)[C@H](O)[C@@H]1O [Compound I-124, (s.e.)-{(1R,2R,3S,4R)-4-[(3,6-dichloro-2-{3-[(trifluoromethyl)sulfanyl]phenyl}pyrazolo[1,5-a]pyrimidin-7-yl)amino]-2,3-dihydroxycyclopentyl}methyl sulfamate]",20%
7,"COc1ccc(C(C)(C)C)cc1-c1cc2nccc(N[C@@H]3C[C@H](COS(N)(=O)=O)[C@@H](O)[C@H]3O)n2n1 (relative stereo) [Compound I-063, (rac)-((1R,2R,3S,4R)-4-{[2-(5-tert-butyl-2-methoxyphenyl)pyrazolo[1,5-a]pyrimidin-7-yl]amino}-2,3-dihydroxycyclopentyl)methyl rel-sulfamate]",100%
8,"NS(=O)(=O)OC[C@H]1C[C@@H](Nc2ccnc3cc(-c4ccc(Cl)c5ccccc45)nn23)[C@H](O)[C@@H]1O [Compound I-108, (s.e.)-[(1R,2R,3S,4R)-4-{[2-(4-chloro-1-naphthyl)pyrazolo[1,5-a]pyrimidin-7-yl]amino}-2,3-dihydroxycyclopentyl]methyl sulfamate]",100%
9,"NS(=O)(=O)OC[C@H]1C[C@@H](Nc2ccnc3cc(-c4ccc5c(c4)C(=O)c4ccccc4-5)nn23)[C@H](O)[C@@H]1O (relative stereo) [Compound I-085, (rac)-((1R,2R,3S,4R)-2,3-dihydroxy-4-(2-(9-oxo-9H-fluoren-2-yl)pyrazolo[1,5-a]pyrimidin-7-ylamino)cyclopentyl)methyl rel-sulfamate]",99%
10,"NS(=O)(=O)OC[C@H]1C[C@@H](Nc2ccnc3cc(-c4cc5ccc(Cl)cc5s4)nn23)[C@H](O)[C@@H]1O (relative stereo) [Compound I-088, (rac)-((1R,2R,3S,4R)-4-(2-(6-chlorobenzo[b]thiophen-2-yl)pyrazolo[1,5-a]pyrimidin-7-ylamino)-2,3-dihydroxycyclopentyl)methyl rel-sulfamate]",97%

# Next, values leading:
row,inhibition at 0.111 µM,Structure (SMILES)
1,99%,"NS(=O)(=O)OC[C@H]1C[C@@H](Nc2ccnc3cc(-c4cccc(C(F)(F)F)c4)nn23)[C@H](O)[C@@H]1O (relative stereo) [Compound I-007, (rac)-((1R,2R,3S,4R)-2,3-Dihydroxy-4-((2-(3-(trifluoromethyl)phenyl)pyrazolo[1,5-a]pyrimidin-7-yl)amino)cyclopentyl)methyl rel-sulfamate]"
2,70%,"CCc1ccc2sc(-c3cc4nccc(N[C@@H]5C[C@H](COS(N)(=O)=O)[C@@H](O)[C@H]5O)n4n3)cc2c1 (relative stereo) [Compound I-095, (rac)-((1R,2R,3S,4R)-4-(2-(5-ethylbenzo[b]thiophen-2-yl)pyrazolo[1,5-a]pyrimidin-7-ylamino)-2,3-dihydroxycyclopentyl)methyl rel-sulfamate]"
3,100%,"NS(=O)(=O)OC[C@H]1C[C@@H](Nc2ccnc3cc(-c4cccc(OC(F)(F)F)c4)nn23)[C@H](O)[C@@H]1O (relative stereo) [Compound I-040, (rac)-((1R,2R,3S,4R)-2,3-Dihydroxy-4-((2-(3-(trifluoromethoxy)phenyl)pyrazolo[1,5-a]pyrimidin-7-yl)amino)cyclopentyl)methyl rel-sulfamate]"
4,92%,"NS(=O)(=O)OC[C@H]1C[C@@H](Nc2ccnc3cc(-c4c(Cl)cc(Cl)c5ccccc45)nn23)[C@H](O)[C@@H]1O [Compound I-117, (s.e.)-((1R,2R,3S,4R)-4-(2-(2,4-dichloronaphthalen-1-yl)pyrazolo[1,5-a]pyrimidin-7-ylamino)-2,3-dihydroxycyclopentyl)methyl sulfamate]"
5,100%,"NS(=O)(=O)OC[C@H]1C[C@@H](Nc2ccnc3cc(-c4c[nH]c5cc(Cl)ccc45)nn23)[C@H](O)[C@@H]1O (relative stereo) [Compound I-055, (rac)-[(1R,2R,3S,4R)-4-{[2-(6-chloro-1H-indol-3-yl)pyrazolo[1,5-a]pyrimidin-7-yl]amino}-2,3-dihydroxycyclopentyl]methyl rel-sulfamate]"
6,100%,"NS(=O)(=O)OC[C@H]1C[C@@H](Nc2ccnc3cc(-c4cccc5c4oc4ccccc45)nn23)[C@H](O)[C@@H]1O [Compound I-103, (s.e.)-((1R,2R,3S,4R)-4-(2-(dibenzo[b,d]furan-4-yl)pyrazolo[1,5-a]pyrimidin-7-ylamino)-2,3-dihydroxycyclopentyl)methyl sulfamate]"
7,30%,"COc1ccc(-c2cc3nc(Cl)cc(N[C@@H]4C[C@H](COS(N)(=O)=O)[C@@H](O)[C@H]4O)n3n2)cc1 (relative stereo) [Compound I-014, (rac)-[(1R,2R,3S,4R)-4-{[5-chloro-2-(4-methoxyphenyl)pyrazolo[1,5-a]pyrimidin-7-yl]amino}-2,3-dihydroxycyclopentyl]methyl rel-sulfamate]"
8,84%,"NS(=O)(=O)OC[C@H]1C[C@@H](Nc2ccnc3cc(-c4cccc(Cc5ccccc5)c4)nn23)[C@H](O)[C@@H]1O (relative stereo) [Compound I-069, (rac)-((1R,2R,3S,4R)-4-(2-(3-benzylphenyl)pyrazolo[1,5-a]pyrimidin-7-ylamino)-2,3-dihydroxycyclopentyl)methyl rel-sulfamate]"
9,100%,"CC(CO)(CCl)c1cccc(-c2cc3nccc(N[C@@H]4C[C@H](COS(N)(=O)=O)[C@@H](O)[C@H]4O)n3n2)c1 (relative stereo) [Compound I-123, (rac)-{(1R,2R,3S,4R)-4-[(2-{3-[2-chloro-1-(hydroxymethyl)-1-methylethyl]phenyl}pyrazolo[1,5-a]pyrimidin-7-yl)amino]-2,3-dihydroxycyclopentyl}methyl rel-sulfamate]"
10,100%,"CCCOC(C)(C)c1cccc(-c2cc3nccc(N[C@@H]4C[C@H](COS(N)(=O)=O)[C@@H](O)[C@H]4O)n3n2)c1 (relative stereo) [Compound I-090, (rac)-((1R,2R,3S,4R)-2,3-dihydroxy-4-(2-(3-(2-propoxypropan-2-yl)phenyl)pyrazolo[1,5-a]pyrimidin-7-ylamino)cyclopentyl)methyl rel-sulfamate]"
11,100%,"CCc1ccc2scc(-c3cc4nccc(N[C@@H]5C[C@H](COS(N)(=O)=O)[C@@H](O)[C@H]5O)n4n3)c2c1 (relative stereo) [Compound I-094, (rac)-((1R,2R,3S,4R)-4-(2-(5-ethylbenzo[b]thiophen-3-yl)pyrazolo[1,5-a]pyrimidin-7-ylamino)-2,3-dihydroxycyclopentyl)methyl rel-sulfamate]"
12,100%,"NS(=O)(=O)OC[C@H]1C[C@@H](Nc2ccnc3cc(-c4cccc(SC(F)(F)F)c4)nn23)[C@H](O)[C@@H]1O (relative stereo) [Compound I-044, (rac)-((1R,2R,3S,4R)-2,3-dihydroxy-4-(2-(3-(trifluoromethylthio)phenyl)pyrazolo[1,5-a]pyrimidin-7-ylamino)cyclopentyl)methyl rel-sulfamate]"
13,100%,"NS(=O)(=O)OC[C@H]1C[C@@H](Nc2ccnc3cc(-c4cccc(C5CCCC5)c4)nn23)[C@H](O)[C@@H]1O (relative stereo) [Compound I-048, (rac)-[(1R,2R,3S,4R)-4-{[2-(3-cyclopentylphenyl)pyrazolo[1,5-a]pyrimidin-7-yl]amino}-2,3-dihydroxycyclopentyl]methyl rel-sulfamate]"
14,100%,"NS(=O)(=O)OC[C@H]1C[C@@H](Nc2ccnc3cc(-c4cccc(N5CCCCC5)c4)nn23)[C@H](O)[C@@H]1O (relative stereo) [Compound I-077, (rac)-((1R,2R,3S,4R)-2,3-dihydroxy-4-(2-(3-(piperidin-1-yl)phenyl)pyrazolo[1,5-a]pyrimidin-7-ylamino)cyclopentyl)methyl rel-sulfamate]"
15,100%,"CC1(C)COc2ccc(-c3cc4nccc(N[C@@H]5C[C@H](COS(N)(=O)=O)[C@@H](O)[C@H]5O)n4n3)cc21 (relative stereo) [Compound I-026, (rac)-((1R,2R,3S,4R)-4-(2-(3,3-dimethyl-2,3-dihydrobenzofuran-5-yl)pyrazolo[1,5-a]pyrimidin-7-ylamino)-2,3-dihydroxycyclopentyl)methyl rel-sulfamate]"
